In one assay the test system is Helicobacter pylori. Put plainly: Increase in UDP-MurNAc-Ala level in Helicobacter pylori. The assay is classed as functional, organism-based.

Activity calls are given as the source filed them. No cut-off for these calls is given here.

Broadly, the Km is the substrate concentration at which the rate is half of its maximum. A word on the kcat: it is the maximal rate divided by the concentration of active sites.

Description for Enterococcus faecium: Activity of Enterococcus faecium MurI
Description for Escherichia coli: Activity of Escherichia coli MurI
Description for Staphylococcus aureus: Activity of Staphylococcus aureus MurI

Turning to `CC(C)Cn1c(=O)n(C)c(=O)c2c(-c3ccncc3)n(Cc3cccc4ccccc34)nc21`, the result in the assay on Helicobacter pylori was Active.

In the case of `N[C@@H](CCC(=O)O)C(=O)O`, the Km came to 4600 µM in the assay with Staphylococcus aureus, 1100 µM in the assay with Enterococcus faecium and 1200 µM in the assay on Escherichia coli. Further, the kcat turned out to be 8.5 s⁻¹ in the assay with Staphylococcus aureus and 12.2 s⁻¹ with Escherichia coli.

As for `N[C@H](CCC(=O)O)C(=O)O`, the Km in the assay with Staphylococcus aureus is 140 µM; in the assay with Enterococcus faecium, 240 µM; in the assay with Escherichia coli it was 2100 µM. The results for the kcat with Staphylococcus aureus and in the assay with Escherichia coli were 0.567 s⁻¹ and 43.3 s⁻¹, respectively.
